For this assay, the target named is T1, human FFAR1 (GPR40) (Homo sapiens, UniProt O14842).
T1 construct: Flag; expressed in transfected cells; host or cells: HEK293T
As to the kind of experiment: NFAT-RE-based reporter gene activity assay (Dual-Glo luciferase) for GPR40 agonistic activity in co-transfected HEK293T cells. The format is cell-based. As to conditions: 4-hour treatment; for Efficacy (%): class symbols. In outline:
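Agonism read as NFAT-RE-driven firefly luciferase over Renilla control (Dual-Glo) after 4 h compound exposure, top concentration 1 µM, 10 half-log steps.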
Background: In a reporter assay the amount or activity of a reporter protein is the signal.

Consider 32 compounds from EP4682145A1, “BENZOHETEROCYCLIC COMPOUND, AND PREPARATION METHOD THEREFOR AND USE THEREOF” (Cascade Pharmaceuticals, Inc., priority 2023, dated 2024).

T1 sequence (O14842 whole entry): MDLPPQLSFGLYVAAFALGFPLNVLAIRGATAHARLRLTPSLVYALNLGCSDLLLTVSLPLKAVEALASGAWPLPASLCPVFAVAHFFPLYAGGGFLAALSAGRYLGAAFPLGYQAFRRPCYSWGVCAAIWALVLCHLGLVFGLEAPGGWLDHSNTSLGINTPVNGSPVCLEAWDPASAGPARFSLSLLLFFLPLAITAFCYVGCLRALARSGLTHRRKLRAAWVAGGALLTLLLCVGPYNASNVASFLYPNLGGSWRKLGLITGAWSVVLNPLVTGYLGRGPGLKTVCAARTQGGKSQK

Usually EC50 stands for the concentration at which the effect is half-maximal. Read a low EC50 as a more potent agent. `COc1cccc(N2CCC(c3oc4cc(C(CC(=O)O)C5CC5)ccc4c3C(=O)NC34CC5CC(CC(C)(C5)C3)C4)CC2)c1` (stereo not shown) [Compound 353]: the EC50 lay in the range of 100 to 500 nM and the “Efficacy (%)” value is recorded as “††† (Efficacy (%) > 150)”.

For `COc1cccc(N2CCC(c3oc4cc([C@@H](CC(=O)O)C5CC5)ccc4c3C(=O)NC34CC5CC(C)(CC(C)(C5)C3)C4)CC2)c1` [Compound 354], the EC50 was in the range of 100 to 500 nM and the “Efficacy (%)” value is given as “†† (150 ≥ Efficacy (%) > 100)”.

As for `COc1cccc(N2CCC(c3oc4cc(C(CC(=O)O)C5CC5)ccc4c3C(=O)NCc3ccccc3)CC2)c1` (stereo not shown) [Compound 355], the EC50 fell in the range of 100 to 500 nM and the “Efficacy (%)” value is “†† (150 ≥ Efficacy (%) > 100)”.

`COc1cccc(N2CCC(c3oc4cc(C(CC(=O)O)C5CC5)ccc4c3C(=O)N3CCCC3)CC2)c1` (stereo not shown) [Compound 358]: the EC50 lay in the range of 100 to 500 nM and the “Efficacy (%)” value was “† (100 ≥ Efficacy (%) > 50)”.

For the compound `COc1cccc(N2CCC(c3oc4cc(C(CC(=O)O)C5CC5)ccc4c3C(=O)N3CCCC3C)CC2)c1` (stereo not shown) [Compound 359], the EC50 is 100 to 500 nM and the “Efficacy (%)” value was “† (100 ≥ Efficacy (%) > 50)”.

For `COc1cccc(N2CCC(c3oc4cc(C(CC(=O)O)C5CC5)ccc4c3C(=O)N3CC4(CCC4)C3)CC2)c1` (stereo not shown) [Compound 360], the EC50 is above 500 nM and the “Efficacy (%)” value is “††† (Efficacy (%) > 150)”.

On to `COc1cccc(N2CCC(c3oc4cc([C@@H](CC(=O)O)C5CC5)ccc4c3/C=C/C(C)(C)C)CC2)c1` [Compound 361], for which the EC50 fell in the range of 10 to 100 nM and the “Efficacy (%)” value was “†† (150 ≥ Efficacy (%) > 100)”.

Turning to `COc1cccc(N2CCC(c3oc4cc(C(CC(=O)O)C5CC5)ccc4c3/C=C/C3CC3)CC2)c1` (stereo not shown) [Compound 364], the EC50 is 100 to 500 nM and the “Efficacy (%)” value is on record as “†† (150 ≥ Efficacy (%) > 100)”.

Turning to `COc1ccc(F)c(N2CCC(c3oc4cc(C(CC(=O)O)C5CC5)ccc4c3/C=C/C(C)(C)C)CC2)c1` (stereo not shown) [Compound 366], the EC50 is 10 to 100 nM and the “Efficacy (%)” value is “†† (150 ≥ Efficacy (%) > 100)”.

On to `COc1ccc(F)c(N2CCC(c3oc4cc([C@@H](CC(=O)O)C5CC5)ccc4c3/C=C/C(C)(C)C)CC2)c1` [Compound 367], for which the EC50 is at most 10 nM and the “Efficacy (%)” value was “†† (150 ≥ Efficacy (%) > 100)”.

`COc1ccc(F)c(N2CCC(c3oc4cc(C(CC(=O)O)C5CC5)ccc4c3/C=C/C(C)(C)O)CC2)c1` (stereo not shown) [Compound 368]: the EC50 fell in the range of 100 to 500 nM and the “Efficacy (%)” value is “††† (Efficacy (%) > 150)”.

As to `COc1ccc(F)c(N2CCC(c3oc4cc([C@@H](CC(=O)O)C5CC5)ccc4c3/C=C/C(C)(C)O)CC2)c1` [Compound 369], the EC50 was 100 to 500 nM and the “Efficacy (%)” value is recorded as “† (100 ≥ Efficacy (%) > 50)”.

Regarding `COc1ccc(F)c(N2CCC(c3oc4cc(C(CC(=O)O)C5CC5)ccc4c3C=C(C)C)CC2)c1` (stereo not shown) [Compound 370], the EC50 was in the range of 100 to 500 nM and the “Efficacy (%)” value was “†† (150 ≥ Efficacy (%) > 100)”.

For the compound `COc1ccc(F)c(N2CCC(c3oc4cc(C(CC(=O)O)C5CC5)ccc4c3C/C=C/C(C)C)CC2)c1` (stereo not shown) [Compound 371], the EC50 is 100 to 500 nM and the “Efficacy (%)” value is on record as “†† (150 ≥ Efficacy (%) > 100)”.

For `COc1ccc(F)c(N2CCC(c3oc4cc([C@@H](CC(=O)O)C5CC5)ccc4c3CC=C(C)C)CC2)c1` [Compound 372], the EC50 lay in the range of 100 to 500 nM and the “Efficacy (%)” value is “†† (150 ≥ Efficacy (%) > 100)”.

In the case of `COc1ccc(F)c(N2CCC(c3oc4cc([C@@H](CC(=O)O)C5CC5)ccc4c3C/C=C/C3CC3)CC2)c1` [Compound 373], the EC50 fell in the range of 10 to 100 nM and the “Efficacy (%)” value is recorded as “†† (150 ≥ Efficacy (%) > 100)”.

`COc1cccc(N2CCC(c3oc4cc([C@@H](CC(=O)O)C5CC5)ccc4c3CC=C(C)C)CC2)c1` [Compound 374]: the EC50 fell in the range of 10 to 100 nM and the “Efficacy (%)” value is “†† (150 ≥ Efficacy (%) > 100)”.

For the compound `COc1cccc(N2CCC(c3oc4cc([C@@H](CC(=O)O)C5CC5)ccc4c3C/C=C/C3CC3)CC2)c1` [Compound 375], the EC50 lay within 100 to 500 nM and the “Efficacy (%)” value was “†† (150 ≥ Efficacy (%) > 100)”.

`CC(C)=CCc1c(C2CCN(c3ccc4c(c3)OCO4)CC2)oc2cc([C@@H](CC(=O)O)C3CC3)ccc12` [Compound 376]: the EC50 was 10 to 100 nM and the “Efficacy (%)” value is “†† (150 ≥ Efficacy (%) > 100)”.

Turning to `COc1cccc(N2CCC(c3oc4cc(C(CC(=O)O)C5CC5)ccc4c3C(=CCC(C)C)c3ccccc3)CC2)c1` (stereo not shown) [Compound 377], the EC50 was in the range of 10 to 100 nM and the “Efficacy (%)” value was “†† (150 ≥ Efficacy (%) > 100)”.

As to `COc1ccc(F)c(N2CCC(c3oc4cc(C(CC(=O)O)C5CC5)ccc4c3C3=CCCCC3)CC2)c1` (stereo not shown) [Compound 379], the EC50 is 100 to 500 nM and the “Efficacy (%)” value is reported as “†† (150 ≥ Efficacy (%) > 100)”.

Regarding `COc1ccc(F)c(N2CCC(c3oc4cc(C(CC(=O)O)C5CC5)ccc4c3C3=CCC(C(C)(C)C)CC3)CC2)c1` (stereo not shown) [Compound 380], the EC50 is above 500 nM and the “Efficacy (%)” value is listed as “†† (150 ≥ Efficacy (%) > 100)”.

For the compound `COc1ccc(F)c(N2CCC(c3oc4cc(C(CC(=O)O)C5CC5)ccc4c3CC3=CCCC3)CC2)c1` (stereo not shown) [Compound 383], the EC50 lay within 100 to 500 nM and the “Efficacy (%)” value was “††† (Efficacy (%) > 150)”.

Turning to `CCCCC(C)c1c(C2CCN(c3cccc(OC)c3)CC2)oc2cc([C@@H](CC(=O)O)C3CC3)ccc12` (stereo partly shown) [Compound 384], the EC50 is 100 to 500 nM and the “Efficacy (%)” value is “†† (150 ≥ Efficacy (%) > 100)”.

`COc1cccc(N2CCC(c3oc4cc([C@@H](CC(=O)O)C5CC5)ccc4c3C(C)CCC(C)C)CC2)c1` (stereo partly shown) [Compound 385]: the EC50 was 10 to 100 nM and the “Efficacy (%)” value is “†† (150 ≥ Efficacy (%) > 100)”.

In the case of `CCCCC(c1ccccc1)c1c(C2CCN(c3cccc(OC)c3)CC2)oc2cc([C@@H](CC(=O)O)C3CC3)ccc12` (stereo partly shown) [Compound 386], the EC50 is 10 to 100 nM and the “Efficacy (%)” value is reported as “†† (150 ≥ Efficacy (%) > 100)”.

As for `COc1cccc(N2CCC(c3oc4cc([C@@H](CC(=O)O)C5CC5)ccc4c3C(CCC(C)C)c3ccccc3)CC2)c1` (stereo partly shown) [Compound 387], the EC50 is 10 to 100 nM and the “Efficacy (%)” value is “†† (150 ≥ Efficacy (%) > 100)”.

For `COc1ccc(F)c(N2CCC(c3oc4cc(C(CC(=O)O)C5CC5)ccc4c3CCC(C)(C)C)CC2)c1` (stereo not shown) [Compound 388], the EC50 was 100 to 500 nM and the “Efficacy (%)” value is reported as “†† (150 ≥ Efficacy (%) > 100)”.

For `COc1ccc(F)c(N2CCC(c3oc4cc([C@@H](CC(=O)O)C5CC5)ccc4c3CCC(C)(C)C)CC2)c1` [Compound 389], the EC50 is 100 to 500 nM and the “Efficacy (%)” value is “†† (150 ≥ Efficacy (%) > 100)”.

On to `COc1ccc(F)c(N2CCC(c3oc4cc(C(CC(=O)O)C5CC5)ccc4c3CCC(C)(C)O)CC2)c1` (stereo not shown) [Compound 390], for which the EC50 was 100 to 500 nM and the “Efficacy (%)” value is “†† (150 ≥ Efficacy (%) > 100)”.

As for `COc1ccc(F)c(N2CCC(c3oc4cc([C@@H](CC(=O)O)C5CC5)ccc4c3CCCC3CC3)CC2)c1` [Compound 391], the EC50 was in the range of 100 to 500 nM and the “Efficacy (%)” value is reported as “†† (150 ≥ Efficacy (%) > 100)”.

Take `COc1ccc(F)c(N2CCC(c3oc4cc(C(CC(=O)O)C5CC5)ccc4c3CCOC(C)C)CC2)c1` (stereo not shown) [Compound 393]: the EC50 fell in the range of 100 to 500 nM and the “Efficacy (%)” value is reported as “†† (150 ≥ Efficacy (%) > 100)”.
